Literature values as cited in US12150952B2, “Formulation for the use in the simultaneous treatment of coccidial infections and iron deficiencies” (Elanco Animal Health GmbH, priority 2018, dated 2024).
Where two headings read alike, the source gives them in different places.

Experiments:
Isospora suis = conditions: coccidiosis
[1] = value to be understood as stated ±1

Row | Molecule | preventing the disease in experimentally infected piglets (Isospora suis) | HLB [1] | HLB ([1]; listed as Sodium Docusate)
1 | O=C1OCCN1/N=C/c1ccc([N+](=O)[O-])o1 [furazolidon] | not been successful in preventing the disease |  | 
2 | CCCc1ncc(C[n+]2ccccc2C)c(N)n1 [amprolium] | not been successful in preventing the disease |  | 
3 | CC[C@@]1([C@@H]2O[C@@H]([C@H]3O[C@@](O)(CO)[C@H](C)C[C@@H]3C)C[C@@H]2C)CC[C@H]([C@]2(C)CC[C@]3(C[C@H](O)[C@@H](C)[C@@H]([C@@H](C)[C@@H](OC)[C@H](C)C(=O)O)O3)O2)O1 [monensin] | not been successful in preventing the disease |  | 
4 | CCCCC(CC)COC(=O)CC(C(=O)OCC(CC)CCCC)S(=O)(=O)[O-].[Na+] (stereo not drawn) [Sodium docusate] |  | about 10 | 10
5 | Sorbitan Monooleate |  | about 4.6 | 
